According to patent US12655116B2, “Substituted isophthalic acid diamides” (Bayer Aktiengesellschaft, priority 2020, dated 2026):

Legend:
[1] = system: AMARE; assay: Pre-emergence herbicidal action against AMARE; type: in vivo, Amaranthus retroflexus; details: Amaranthus retroflexus, 504 h, 100% = plants have died, 0% = like control plants; for pest or weed control at 320 g/ha: scored visually after 3 weeks
Outline: (§1)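 Sandy loam pots, seeds covered with soil, then surface-treated with WP or EC formulations at 600–800 l/ha water plus 0.2% wetting agent. Greenhouse, 3 weeks. Percent damage vs untreated controls.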

[2] = system: LOLRI; assay: Pre-emergence herbicidal action against LOLRI; type: in vivo, Lolium rigidum; details: Lolium rigidum, 504 h, 320 g/ha
Outline: as §1

[3] = system: STEME; assay: Post-emergence herbicidal action against STEME; type: in vivo, Stellaria media; details: Stellaria media, 504 h
Outline: (§2)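 Herbicidal action is a visual percentage rating (0% = as untreated control, 100% = plants dead) made roughly 3 weeks after treatment. Plants were grown in sandy loam in the greenhouse and treated at the one-leaf stage, 2 to 3 weeks post-sowing. Treatment was a foliar spray of wettable-powder or emulsion-concentrate formulations at 600 to 800 l/ha water plus 0.2% wetting agent.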

[4] = system: POLCO; assay: Post-emergence herbicidal action against POLCO; type: in vivo, Polygonum convolvulus; details: Fallopia convolvulus, 504 h, dosage 80 g/ha
Outline: as §2

[5] = system: VIOTR; assay: Post-emergence herbicidal action against VIOTR; type: in vivo, Viola tricolor; details: Viola tricolor, 504 h
Outline: as §2

[6] = system: SETVI; assay: Pre-emergence herbicidal action against SETVI; type: in vivo, Setaria viridis; details: Setaria viridis, 504 h; for pest or weed control at 80 g/ha: dosage 80 g/ha; for pest or weed control at 320 g/ha: dosage 320 g/ha
Outline: as §1

[7] = system: AVEFA; assay: Post-emergence herbicidal action against AVEFA; type: in vivo, Avena fatua; details: Avena fatua, 504 h, visual assessment about 3 weeks after treatment, 100% = plants have died, 0% = like control plants
Outline: as §2

[8] = system: PHBPU; assay: Post-emergence herbicidal action against PHBPU; type: in vivo, Pharbitis purpurea; details: Ipomoea purpurea, 504 h; for pest or weed control at 80 g/ha: dosage 80 g/ha
Outline: as §2

[9] = system: VERPE; assay: Pre-emergence herbicidal action against VERPE; type: in vivo, Veronica persica; details: Veronica persica, 504 h; for pest or weed control at 320 g/ha: dosage 320 g/ha
Outline: as §1

[10] = system: MATIN; assay: Post-emergence herbicidal action against MATIN; type: in vivo, Matricaria inodora; details: Tripleurospermum inodorum, 504 h; for pest or weed control at 20 g/ha: dosage 20 g/ha; for pest or weed control at 80 g/ha: dosage 80 g/ha
Outline: as §2

[11] = system: ECHCG; assay: Post-emergence herbicidal action against ECHCG; type: in vivo, Echinochloa crus-galli; details: Echinochloa crus-galli, 504 h; for pest or weed control at 20 g/ha: dosage 20 g/ha; for pest or weed control at 80 g/ha: dosage 80 g/ha
Outline: as §2

[12] = system: ALOMY; assay: Pre-emergence herbicidal action against ALOMY; type: in vivo, Alopecurus myosuroides; details: Alopecurus myosuroides, pre-emergence, 504 h
Outline: as §1

[13] = system: ECHCG; assay: Pre-emergence herbicidal action against ECHCG; type: in vivo, Echinochloa crus-galli; details: Echinochloa crus-galli, 504 h
Outline: as §1

[14] = system: HORMU; assay: Post-emergence herbicidal action against HORMU; type: in vivo, Hordeum murinum; details: Hordeum murinum, 504 h; for pest or weed control at 80 g/ha: dosage 80 g/ha
Outline: as §2

[15] = system: VIOTR; assay: Pre-emergence herbicidal action against VIOTR; type: in vivo, Viola tricolor; details: Viola tricolor, 504 h; for pest or weed control at 80 g/ha: dosage 80 g/ha; for pest or weed control at 320 g/ha: dosage 320 g/ha
Outline: as §1

[16] = system: STEME; assay: Pre-emergence herbicidal action against STEME; type: in vivo, Stellaria media; details: Stellaria media, 504 h; for pest or weed control at 80 g/ha: dosage 80 g/ha; for pest or weed control at 320 g/ha: dosage 320 g/ha
Outline: as §1

[17] = system: AMARE; assay: Post-emergence herbicidal action against AMARE; type: in vivo, Amaranthus retroflexus; details: Amaranthus retroflexus, 504 h, visual assessment about 3 weeks after treatment, 100% = plants have died, 0% = like control plants
Outline: as §2

[18] = system: AVEFA; assay: Pre-emergence herbicidal action against AVEFA; type: in vivo, Avena fatua; details: Avena fatua, 504 h, pre-emergence
Outline: as §1

[19] = system: MATIN; assay: Pre-emergence herbicidal action against MATIN; type: in vivo, Matricaria inodora; details: Tripleurospermum inodorum, 504 h; for pest or weed control at 80 g/ha: dosage 80 g/ha; for pest or weed control at 320 g/ha: dosage 320 g/ha
Outline: as §1

[20] = system: LOLRI; assay: Post-emergence herbicidal action against LOLRI; type: in vivo, Lolium rigidum; details: Lolium rigidum, 504 h; for pest or weed control at 20 g/ha: dosage 20 g/ha; for pest or weed control at 80 g/ha: dosage 80 g/ha
Outline: as §2

[21] = system: ABUTH; assay: Pre-emergence herbicidal action against ABUTH; type: in vivo, Abutilon theophrasti; details: Abutilon theophrasti, 504 h; for pest or weed control at 80 g/ha: scored visually after 3 weeks vs untreated controls (100% = plants have died, 0% = like control plants); for pest or weed control at 320 g/ha: Dosage: 320 g/ha, scored visually after 3 weeks
Outline: as §1

[22] = system: HORMU; assay: Pre-emergence herbicidal action against HORMU; type: in vivo, Hordeum murinum; details: Hordeum murinum, 504 h, pre-emergence
Outline: as §1

[23] = system: VERPE; assay: Post-emergence herbicidal action against VERPE; type: in vivo, Veronica persica; details: Veronica persica, 504 h
Outline: as §2

[24] = scored visually after 3 weeks vs untreated controls
[25] = scored visually after 3 weeks, 100% = plants have died, 0% = like control plants
[26] = 100% = plants have died, 0% = like control plants
[27] = 20 g/ha, scored visually after 3 weeks, 100% = plants have died, 0% = like control plants

For `CCn1nnnc1NC(=O)c1ccc(C(F)(F)F)c(C(=O)NC)c1SC` [Example 2-81], the pest or weed control at 80 g/ha [1, 24] was 100%, the pest or weed control at 320 g/ha [1] was 100% and the pest or weed control at 320 g/ha [2] was 90%. The pest or weed control at 20 g/ha [3] was 90%, the pest or weed control at 80 g/ha [3] was 100% and the pest or weed control at 80 g/ha [4] was 80%. The pest or weed control at 80 g/ha [5] was 90%, the pest or weed control at 80 g/ha [6] was 100% and the pest or weed control at 320 g/ha [6] was 100%. It also gave a pest or weed control at 20 g/ha [7] of 90%, a pest or weed control at 80 g/ha [7] of 100% and a pest or weed control at 80 g/ha [8] of 90%. It also gave a pest or weed control at 80 g/ha ([9]; dosage 80 g/ha) of 90%, a pest or weed control at 320 g/ha [9] of 90% and a pest or weed control at 20 g/ha [10] of 100%. The pest or weed control at 80 g/ha [10] was 100%, the pest or weed control at 20 g/ha [11] was 90% and the pest or weed control at 80 g/ha [11] was 90%. It also gave a pest or weed control at 320 g/ha [12, 25] of 90%, a pest or weed control at 80 g/ha [13] of 100% and a pest or weed control at 320 g/ha [13] of 100%. It also gave a pest or weed control at 80 g/ha [14] of 80%, a pest or weed control at 80 g/ha [15] of 90% and a pest or weed control at 320 g/ha [15] of 100%. It also gave a pest or weed control at 80 g/ha [16] of 90%, a pest or weed control at 320 g/ha [16] of 100% and a pest or weed control at 20 g/ha [17] of 90%. The pest or weed control at 80 g/ha [17] was 90%, the pest or weed control at 80 g/ha [18] was 80% and the pest or weed control at 320 g/ha [18, 25] was 100%. The pest or weed control at 80 g/ha [19] was 100%, the pest or weed control at 320 g/ha [19] was 100% and the pest or weed control at 20 g/ha [20] was 80%. It also gave a pest or weed control at 80 g/ha [20] of 90%, a pest or weed control at 80 g/ha [21] of 100% and a pest or weed control at 320 g/ha [21, 26] of 100%. The pest or weed control at 80 g/ha [22] was 90%, the pest or weed control at 320 g/ha [22] was 100% and the pest or weed control at 20 g/ha [23] was 80%. For the same compound, the pest or weed control at 80 g/ha [23] was 90%.

`CCn1nnnc1NC(=O)c1ccc(C(F)(F)F)c(C(=O)NC)c1Cl` [Example 2-129] was tested, and the pest or weed control at 20 g/ha ([1]; 20 g/ha, scored visually after 3 weeks vs untreated controls) was 100%, the pest or weed control at 80 g/ha [1, 24] was 100% and the pest or weed control at 320 g/ha [1] was 100%. For the same compound, the pest or weed control at 320 g/ha [2] was 100%, the pest or weed control at 20 g/ha [3] was 100% and the pest or weed control at 80 g/ha [3] was 100%. The pest or weed control at 5 g/ha ([3]; dosage 5 g/ha) was 100%, the pest or weed control at 80 g/ha [4] was 100% and the pest or weed control at 5 g/ha ([5]; 5 g/ha) was 80%. It also gave a pest or weed control at 20 g/ha ([5]; 20 g/ha) of 100%, a pest or weed control at 80 g/ha [5] of 100% and a pest or weed control at 20 g/ha ([6]; dosage 20 g/ha) of 100%. For the same compound, the pest or weed control at 80 g/ha [6] was 100%, the pest or weed control at 320 g/ha [6] was 100% and the pest or weed control at 5 g/ha ([7]; 5 g/ha) was 100%. For the same compound, the pest or weed control at 20 g/ha [7] was 100%, the pest or weed control at 80 g/ha [7] was 100% and the pest or weed control at 20 g/ha ([8]; dosage 20 g/ha) was 100%. The pest or weed control at 80 g/ha [8] was 100%, the pest or weed control at 320 g/ha [9] was 100% and the pest or weed control at 5 g/ha ([10]; dosage 5 g/ha) was 80%. It also gave a pest or weed control at 20 g/ha [10] of 100%, a pest or weed control at 80 g/ha [10] of 100% and a pest or weed control at 20 g/ha [11] of 100%. For the same compound, the pest or weed control at 80 g/ha [11] was 100%, the pest or weed control at 80 g/ha ([12]; 80 g/ha, scored visually after 3 weeks vs untreated controls (100% = plants have died, 0% = like control plants)) was 100% and the pest or weed control at 20 g/ha [12, 27] was 90%. For the same compound, the pest or weed control at 320 g/ha [12, 25] was 100%, the pest or weed control at 80 g/ha [13] was 100% and the pest or weed control at 320 g/ha [13] was 100%. It also gave a pest or weed control at 5 g/ha ([14]; dosage 5 g/ha) of 80%, a pest or weed control at 20 g/ha ([14]; dosage 20 g/ha) of 90% and a pest or weed control at 80 g/ha [14] of 100%. The pest or weed control at 20 g/ha ([15]; dosage 20 g/ha) was 100%, the pest or weed control at 80 g/ha [15] was 100% and the pest or weed control at 320 g/ha [15] was 100%. It also gave a pest or weed control at 20 g/ha ([16]; dosage 20 g/ha) of 80%, a pest or weed control at 80 g/ha [16] of 80% and a pest or weed control at 320 g/ha [16] of 100%. For the same compound, the pest or weed control at 20 g/ha [17] was 100%, the pest or weed control at 80 g/ha [17] was 100% and the pest or weed control at 80 g/ha [18] was 100%. The pest or weed control at 20 g/ha [18, 27] was 100%, the pest or weed control at 320 g/ha [18, 25] was 100% and the pest or weed control at 20 g/ha ([19]; dosage 20 g/ha) was 100%. It also gave a pest or weed control at 80 g/ha [19] of 100%, a pest or weed control at 320 g/ha [19] of 100% and a pest or weed control at 20 g/ha [20] of 100%. It also gave a pest or weed control at 80 g/ha [20] of 100%, a pest or weed control at 80 g/ha [21] of 100% and a pest or weed control at 320 g/ha [21, 26] of 100%. It also gave a pest or weed control at 20 g/ha ([21]; dosage 20 g/ha, scored visually after 3 weeks vs untreated controls, 100% = plants have died, 0% = like control plants, read-out: Pre-emergence action against ABUTH (herbicidal activity in percent)) of 100%, a pest or weed control at 80 g/ha [22] of 90% and a pest or weed control at 320 g/ha [22] of 100%. The pest or weed control at 20 g/ha [23] was 80% and the pest or weed control at 80 g/ha [23] was 90%.
